Source: patent publication US20110182982A1, “LIPOSOME TREATMENT OF VIRAL INFECTIONS” (University of Oxford, priority 2006, published 2011)

Columns and labels:
CHO cells = assay: Liposome uptake (Rh-PE) and intracellular calcein dequenching; format: cell-based, Chinese hamster
Description: The effects of different DNJ compounds on the cellular uptake and intracellular release, when encapsulated inside DCPP liposomes, was determined by diluting compounds in 80-mM calcein and incorporating Rh-PE in liposome membranes as previously described, with the final liposome composition being DOPE:CHEMS:PEG-PE:Rh-PE (DCPP-Rh, 6:4:0.3:0.1) Liposomes encapsulating calcein alone, 10-μM DNJ, 1-mM DNJ, 10-μM NB-DNJ, 1-mM NB-DNJ, 10-μM NN-DNJ, or 1-mM NN-DNJ, were incubated with CHO cells for 45 min before liposomes were removed and cells were washed twice in 1×PBS. Cells were then analyzed in a fluorometer to measure calcein dequenching (λex=490 and λem=520 nm) and rhodamine fluorescence (λex=584 and λem=612 nm). Data represent the mean±S.D. obtained from triplicates of four independent experiments, where mean rhodamine fluorescence values reflect the binding and uptake of liposomes and the mean calcein fluorescence reflects the intracellular dequenching of the dye (i.e. dye released from liposomes into intracellular compartments). Results are expressed as the percent fluorescence measured following incubation with DNJ-containing liposomes as compared to the calcein/PBS-only liposome control (=100% on the x axis).
The calculated ratio of calcein to rhodamine fluorescence is taken as a measure of the amount of aqueous marker released per cell-associated liposome, and represents the efficiency of intracellular delivery.

HIV-1 isolate: UG92021 = assay: p24 secretion of HIV-1-infected PBMCs; format: cell-based; conditions: for % p24 secretion Week 1-rb / % p24 secretion Week 2-rb / % p24 secretion Week 3-rb / % p24 secretion Week 4-rb: treatment removed 2 weeks
Description: (§1) Clearance of HIV-1 primary isolates from infected human cells by NB-DNJ was assessed using phytohemagglutinin (PHA)-activated peripheral blood mononuclear cells (PBMCs) as indicator cells and the determination of p24 antigen production as the end point.
(§2) PBMCs from four normal (uninfected) donors were isolated, pooled, and stimulated with PHA (5 μg/ml) for 48 h followed by PHA plus interleukin-2 (40 U/ml) for 72 h in RPMI 1640 medium containing 10% heat-inactivated fetal bovine serum (FBS), 100 U of penicillin per ml, 100 μg of streptomycin per ml, and 2 mM L-glutamine. All experiments were performed in 96-well microtiter plates. To infect cells, 100 μl of PHA-activated PBMCs (5×10^5/ml) was added to each well, after which an equal volume containing 100 50% tissue culture infective doses (TCID50) of primary isolate stock was added. After an overnight incubation, the cells were washed three times with tissue culture medium, and finally re-suspended in medium containing the appropriate liposome treatment or free NB-DNJ. On day 7, approximately 10-30% of the culture volume containing secreted HIV-1 virions was used to infect naïve PBMCs for a second round of infection and treatment (volume transferred was calculated to be the volume necessary for the untreated control of that isolate to infect naïve cells at a TCID50=100). Rounds of treatment and infection of naïve cells were continued over four weeks, and at every time point cellular supernatant containing secreted virions was isolated and used in capture ELISAs to determine p24 concentration (measure of secretion). Additionally, supernatant isolated at each time point throughout treatment was used to infect naïve PBMCs (TCID50=100) for two weeks with no further treatment, which allowed for the observation of a rebound in viral activity.
(§3) PBMCs infected with 8 primary isolates (listed in Table 3) were incubated in the presence of free NB-DNJ (concentrations ranging 0-1 mM) or liposome-encapsulated NB-DNJ (0-3.75 μM, final lipid concentration of 50 μM).

HIV-1 isolate: JR-FL = assay: p24 secretion of HIV-1-infected PBMCs; format: cell-based; conditions: for % p24 secretion Week 1-rb / % p24 secretion Week 2-rb / % p24 secretion Week 3-rb / % p24 secretion Week 4-rb: treatment removed 2 weeks
Description: as §1, §2, §3

HIV-1 isolate: HT92599 = assay: p24 secretion of HIV-1-infected PBMCs; format: cell-based; conditions: for % p24 secretion Week 1-rb / % p24 secretion Week 2-rb / % p24 secretion Week 3-rb / % p24 secretion Week 4-rb: treatment removed 2 weeks
Description: as §1, §2, §3

[1] = 1 mM free in medium, first week

In the case of `CCCCN1C[C@H](O)[C@@H](O)[C@H](O)[C@H]1CO` [NB-DNJ, N-butyl-1,5-dideoxy-1,5-imino-D-glucitol], the “Efficiency (calcein/rhodamine, AU)” value (CHO cells; 10 μM encapsulated in DCPP liposomes) is reported as 21.7 ± 1.5 AU, the “increase of efficiency of intracellular delivery” value (CHO cells; 10 μM in DCPP liposomes) is reported as “approximately 2 fold” and the “Efficiency (calcein/rhodamine, AU)” value (CHO cells; 1 mM encapsulated in DCPP liposomes) is reported as 28.4 ± 2.4 AU. For the same compound, the “increase of efficiency of intracellular delivery” value (CHO cells; 1 mM in DCPP liposomes) was ~3 fold, the “increase in dequenched calcein” value (CHO cells; 1-mM formulation in DCPP-Rh liposomes) was ~2.3 fold and the “increase in dequenched calcein” value (CHO cells; 10-μM formulation in DCPP-Rh liposomes) was ~1.8 fold. For the same compound, the “% p24 secretion Week 1” value (HIV-1 isolate: UG92021; NB-DNJ 250 uM) was 90%, the “% p24 secretion Week 2” value (HIV-1 isolate: UG92021; NB-DNJ 250 uM) was 83% and the “% p24 secretion Week 3” value (HIV-1 isolate: UG92021; NB-DNJ 250 uM) was 88%. For the same compound, the “% p24 secretion Week 4” value (HIV-1 isolate: UG92021; NB-DNJ 250 uM) was 77%, the “% p24 secretion Week 1-rb” value (HIV-1 isolate: UG92021; NB-DNJ 250 uM) was 110% and the “% p24 secretion Week 2-rb” value (HIV-1 isolate: UG92021; NB-DNJ 250 uM) was 101%. The “% p24 secretion Week 3-rb” value (HIV-1 isolate: UG92021; NB-DNJ 250 uM) was 91%, the “% p24 secretion Week 4-rb” value (HIV-1 isolate: UG92021; NB-DNJ 250 uM) was 85% and the “% p24 secretion Week 1” value (HIV-1 isolate: UG92021; NB-DNJ 500 uM) was 85%. For the same compound, the “% p24 secretion Week 2” value (HIV-1 isolate: UG92021; NB-DNJ 500 uM) was 56%, the “% p24 secretion Week 3” value (HIV-1 isolate: UG92021; NB-DNJ 500 uM) was 23% and the “% p24 secretion Week 4” value (HIV-1 isolate: UG92021; NB-DNJ 500 uM) was 8%. The “% p24 secretion Week 1-rb” value (HIV-1 isolate: UG92021; NB-DNJ 500 uM) was 98%, the “% p24 secretion Week 2-rb” value (HIV-1 isolate: UG92021; NB-DNJ 500 uM) was 62% and the “% p24 secretion Week 3-rb” value (HIV-1 isolate: UG92021; NB-DNJ 500 uM) was 27%. The “% p24 secretion Week 4-rb” value (HIV-1 isolate: UG92021; NB-DNJ 500 uM) was 19%, the “% p24 secretion Week 1” value (HIV-1 isolate: UG92021; NB-DNJ 1000 uM) was 61% and the “% p24 secretion Week 2” value (HIV-1 isolate: UG92021; NB-DNJ 1000 uM) was 21%. The “% p24 secretion Week 3” value (HIV-1 isolate: UG92021; NB-DNJ 1000 uM) was 5%, the “% p24 secretion Week 4” value (HIV-1 isolate: UG92021; NB-DNJ 1000 uM) was 0% and the “% p24 secretion Week 1-rb” value (HIV-1 isolate: UG92021; NB-DNJ 1000 uM) was 72%. The “% p24 secretion Week 2-rb” value (HIV-1 isolate: UG92021; NB-DNJ 1000 uM) was 19%, the “% p24 secretion Week 3-rb” value (HIV-1 isolate: UG92021; NB-DNJ 1000 uM) was 3% and the “% p24 secretion Week 4-rb” value (HIV-1 isolate: UG92021; NB-DNJ 1000 uM) was 0%. For the same compound, the “reduction in viral secretion” value (HIV-1 isolate: JR-FL; [1]) was 50%, the “% p24 secretion Week 1” value (HIV-1 isolate: JR-FL; NB-DNJ 250 uM) was 107% and the “% p24 secretion Week 2” value (HIV-1 isolate: JR-FL; NB-DNJ 250 uM) was 105%. For the same compound, the “% p24 secretion Week 3” value (HIV-1 isolate: JR-FL; NB-DNJ 250 uM) was 89%, the “% p24 secretion Week 4” value (HIV-1 isolate: JR-FL; NB-DNJ 250 uM) was 93% and the “% p24 secretion Week 1-rb” value (HIV-1 isolate: JR-FL; NB-DNJ 250 uM) was 104%. For the same compound, the “% p24 secretion Week 2-rb” value (HIV-1 isolate: JR-FL; NB-DNJ 250 uM) was 101%, the “% p24 secretion Week 3-rb” value (HIV-1 isolate: JR-FL; NB-DNJ 250 uM) was 97% and the “% p24 secretion Week 4-rb” value (HIV-1 isolate: JR-FL; NB-DNJ 250 uM) was 91%. For the same compound, the “% p24 secretion Week 1” value (HIV-1 isolate: JR-FL; NB-DNJ 500 uM) was 64%, the “% p24 secretion Week 2” value (HIV-1 isolate: JR-FL; NB-DNJ 500 uM) was 24% and the “% p24 secretion Week 3” value (HIV-1 isolate: JR-FL; NB-DNJ 500 uM) was 5%. The “% p24 secretion Week 4” value (HIV-1 isolate: JR-FL; NB-DNJ 500 uM) was 0%, the “% p24 secretion Week 1-rb” value (HIV-1 isolate: JR-FL; NB-DNJ 500 uM) was 75% and the “% p24 secretion Week 2-rb” value (HIV-1 isolate: JR-FL; NB-DNJ 500 uM) was 9%. The “% p24 secretion Week 3-rb” value (HIV-1 isolate: JR-FL; NB-DNJ 500 uM) was 4%, the “% p24 secretion Week 4-rb” value (HIV-1 isolate: JR-FL; NB-DNJ 500 uM) was 2% and the “% p24 secretion Week 1” value (HIV-1 isolate: JR-FL; NB-DNJ 1000 uM) was 44%. For the same compound, the “% p24 secretion Week 2” value (HIV-1 isolate: JR-FL; NB-DNJ 1000 uM) was 9%, the “% p24 secretion Week 3” value (HIV-1 isolate: JR-FL; NB-DNJ 1000 uM) was 1% and the “% p24 secretion Week 4” value (HIV-1 isolate: JR-FL; NB-DNJ 1000 uM) was 0%. The “% p24 secretion Week 1-rb” value (HIV-1 isolate: JR-FL; NB-DNJ 1000 uM) was 56%, the “% p24 secretion Week 2-rb” value (HIV-1 isolate: JR-FL; NB-DNJ 1000 uM) was 5% and the “% p24 secretion Week 3-rb” value (HIV-1 isolate: JR-FL; NB-DNJ 1000 uM) was 1%. For the same compound, the “% p24 secretion Week 4-rb” value (HIV-1 isolate: JR-FL; NB-DNJ 1000 uM) was 0%, the “reduction in viral secretion” value (HIV-1 isolate: HT92599; [1]) was 50% and the “% p24 secretion Week 1” value (HIV-1 isolate: HT92599; NB-DNJ 250 uM) was 99%. For the same compound, the “% p24 secretion Week 2” value (HIV-1 isolate: HT92599; NB-DNJ 250 uM) was 84%, the “% p24 secretion Week 3” value (HIV-1 isolate: HT92599; NB-DNJ 250 uM) was 88% and the “% p24 secretion Week 4” value (HIV-1 isolate: HT92599; NB-DNJ 250 uM) was 81%. For the same compound, the “% p24 secretion Week 1-rb” value (HIV-1 isolate: HT92599; NB-DNJ 250 uM) was 93%, the “% p24 secretion Week 2-rb” value (HIV-1 isolate: HT92599; NB-DNJ 250 uM) was 99% and the “% p24 secretion Week 3-rb” value (HIV-1 isolate: HT92599; NB-DNJ 250 uM) was 95%. The “% p24 secretion Week 4-rb” value (HIV-1 isolate: HT92599; NB-DNJ 250 uM) was 88%, the “% p24 secretion Week 1” value (HIV-1 isolate: HT92599; NB-DNJ 500 uM) was 53% and the “% p24 secretion Week 2” value (HIV-1 isolate: HT92599; NB-DNJ 500 uM) was 19%. The “% p24 secretion Week 3” value (HIV-1 isolate: HT92599; NB-DNJ 500 uM) was 8%, the “% p24 secretion Week 4” value (HIV-1 isolate: HT92599; NB-DNJ 500 uM) was 1% and the “% p24 secretion Week 1-rb” value (HIV-1 isolate: HT92599; NB-DNJ 500 uM) was 67%. The “% p24 secretion Week 2-rb” value (HIV-1 isolate: HT92599; NB-DNJ 500 uM) was 27%, the “% p24 secretion Week 3-rb” value (HIV-1 isolate: HT92599; NB-DNJ 500 uM) was 17% and the “% p24 secretion Week 4-rb” value (HIV-1 isolate: HT92599; NB-DNJ 500 uM) was 1%. For the same compound, the “% p24 secretion Week 1” value (HIV-1 isolate: HT92599; NB-DNJ 1000 uM) was 55%, the “% p24 secretion Week 2” value (HIV-1 isolate: HT92599; NB-DNJ 1000 uM) was 10% and the “% p24 secretion Week 3” value (HIV-1 isolate: HT92599; NB-DNJ 1000 uM) was 3%. For the same compound, the “% p24 secretion Week 4” value (HIV-1 isolate: HT92599; NB-DNJ 1000 uM) was 0%, the “% p24 secretion Week 1-rb” value (HIV-1 isolate: HT92599; NB-DNJ 1000 uM) was 52% and the “% p24 secretion Week 2-rb” value (HIV-1 isolate: HT92599; NB-DNJ 1000 uM) was 15%. For the same compound, the “% p24 secretion Week 3-rb” value (HIV-1 isolate: HT92599; NB-DNJ 1000 uM) was 6% and the “% p24 secretion Week 4-rb” value (HIV-1 isolate: HT92599; NB-DNJ 1000 uM) was 1%.
